Experiments:
STAT6 protein = target: T1, STAT6 protein (Homo sapiens, UniProt P42226); experiment: Fluorescence polarization (FP) binding assay, STAT6; conditions: FP competition, 5 nM fluorescein-labeled tracer, 200 nM protein, PBS pH7.4; read-out: Binding STAT6
T1 sequence (P42226 1-847): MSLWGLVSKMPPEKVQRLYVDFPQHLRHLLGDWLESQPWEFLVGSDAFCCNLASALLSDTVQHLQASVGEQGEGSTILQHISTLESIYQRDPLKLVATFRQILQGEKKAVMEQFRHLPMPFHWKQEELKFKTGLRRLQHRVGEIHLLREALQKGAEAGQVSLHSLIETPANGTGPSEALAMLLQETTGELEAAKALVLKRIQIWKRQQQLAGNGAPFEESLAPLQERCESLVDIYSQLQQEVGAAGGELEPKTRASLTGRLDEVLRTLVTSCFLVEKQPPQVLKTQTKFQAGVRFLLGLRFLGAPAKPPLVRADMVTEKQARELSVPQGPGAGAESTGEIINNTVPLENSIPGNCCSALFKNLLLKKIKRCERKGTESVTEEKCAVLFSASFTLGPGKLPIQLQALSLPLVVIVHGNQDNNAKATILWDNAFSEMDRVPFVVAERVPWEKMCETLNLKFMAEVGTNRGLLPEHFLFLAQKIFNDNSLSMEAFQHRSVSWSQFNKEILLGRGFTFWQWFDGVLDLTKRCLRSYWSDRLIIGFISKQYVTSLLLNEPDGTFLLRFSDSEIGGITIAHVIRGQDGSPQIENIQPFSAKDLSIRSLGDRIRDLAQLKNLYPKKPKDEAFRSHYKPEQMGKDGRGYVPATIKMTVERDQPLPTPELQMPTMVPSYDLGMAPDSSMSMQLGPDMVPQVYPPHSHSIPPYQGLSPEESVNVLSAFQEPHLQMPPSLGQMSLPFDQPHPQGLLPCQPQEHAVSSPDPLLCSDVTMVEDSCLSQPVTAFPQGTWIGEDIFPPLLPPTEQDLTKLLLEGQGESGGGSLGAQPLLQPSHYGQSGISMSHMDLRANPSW
Method in brief: (§1)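 Polarization read after 1 h equilibration at room temperature (preceded by 15 min shaking) of 200 nM STAT5 and/or STAT6 with 5 nM fluorescein tracer. Buffer: PBS pH 7.4 plus 0.01% BGG, 0.01% Tween-20, 2 mM DTT; inhibition constants derived by nonlinear fitting.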

STAT5A = target: T2, STAT5A (Homo sapiens, UniProt P42229); experiment: Fluorescence polarization (FP) binding assay, STAT5A; conditions: FP competition, 5 nM fluorescein-labeled tracer, 200 nM protein, PBS pH7.4
T2 sequence (P42229 1-794): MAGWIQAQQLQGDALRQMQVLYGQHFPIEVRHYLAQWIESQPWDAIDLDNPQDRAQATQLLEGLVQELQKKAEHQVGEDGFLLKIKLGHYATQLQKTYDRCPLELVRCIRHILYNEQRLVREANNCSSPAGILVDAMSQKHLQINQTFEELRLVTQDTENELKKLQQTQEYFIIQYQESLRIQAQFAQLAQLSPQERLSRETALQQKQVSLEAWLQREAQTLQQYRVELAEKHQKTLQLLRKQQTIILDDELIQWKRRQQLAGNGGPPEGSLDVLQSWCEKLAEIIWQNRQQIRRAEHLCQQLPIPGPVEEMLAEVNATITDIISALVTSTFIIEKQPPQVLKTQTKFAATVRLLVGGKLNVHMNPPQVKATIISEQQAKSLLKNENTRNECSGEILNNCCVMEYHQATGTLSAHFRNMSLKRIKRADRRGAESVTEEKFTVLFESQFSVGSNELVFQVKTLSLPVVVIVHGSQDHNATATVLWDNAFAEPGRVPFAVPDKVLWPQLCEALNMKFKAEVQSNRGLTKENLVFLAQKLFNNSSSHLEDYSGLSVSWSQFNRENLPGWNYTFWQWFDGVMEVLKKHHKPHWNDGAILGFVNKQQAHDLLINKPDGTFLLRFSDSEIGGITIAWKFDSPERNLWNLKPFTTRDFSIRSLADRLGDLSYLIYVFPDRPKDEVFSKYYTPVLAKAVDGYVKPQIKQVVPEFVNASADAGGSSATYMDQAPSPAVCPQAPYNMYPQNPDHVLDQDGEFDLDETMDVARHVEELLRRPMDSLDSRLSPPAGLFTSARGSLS
Method in brief: as §1

In the case of `CC1(c2ccc(Cl)cc2)CN(C(=O)[C@@H]2CCCN2C(=O)[C@@H](NC(=O)c2cc3cc(C(F)(F)P(=O)(O)O)ccc3s2)C(C)(C)C)CCO1` (stereo partly drawn) [Compound 101, ((2-(((2S)-1-((2S)-2-(2-(4-chlorophenyl)-2-methylmorpholine-4-carbonyl)pyrrolidin-1-yl)-3,3-dimethyl-1-oxobutan-2-yl)carbamoyl)benzo[b]thiophen-5-yl)difluoromethyl)phosphonic acid], the Ki (STAT6 protein) is reported as 1 to 10 µM and the Ki (STAT5A) is reported as over 10 µM.
With `CC(C)(C)[C@H](NC(=O)c1cc2cc(C(F)(F)P(=O)(O)O)ccc2s1)C(=O)N1CCC[C@H]1C(=O)N1CCOC(c2ccc(F)cc2)C1` (stereo partly drawn) [Compound 102, (difluoro(2-(((2S)-1-((2S)-2-(2-(4-fluorophenyl)morpholine-4-carbonyl)pyrrolidin-1-yl)-3,3-dimethyl-1-oxobutan-2-yl)carbamoyl)benzo[b]thiophen-5-yl)methyl)phosphonic acid] the Ki (STAT6 protein) was 0.1 to 1 µM and the Ki (STAT5A) was over 10 µM.
`CC(C)(C)[C@H](NC(=O)c1cc2cc(C(F)(F)P(=O)(O)O)ccc2s1)C(=O)N1CCC[C@H]1C(=O)N1CCOC(c2cccc(Cl)c2)C1` (stereo partly drawn) [Compound 103, ((2-(((2S)-1-((2S)-2-(2-(3-chlorophenyl)morpholine-4-carbonyl)pyrrolidin-1-yl)-3,3-dimethyl-1-oxobutan-2-yl)carbamoyl)benzo[b]thiophen-5-yl)difluoromethyl)phosphonic acid] gave a Ki (STAT6 protein) of 1 to 10 µM and a Ki (STAT5A) of 1 to 10 µM.
With `CC(C)(C)[C@H](NC(=O)c1cc2cc(C(F)(F)P(=O)(O)O)ccc2s1)C(=O)N1CCC[C@H]1C(=O)N1CCOC(c2cc(F)c(Cl)cc2Cl)C1` (stereo partly drawn) [Compound 104, ((2-(((2S)-1-((2S)-2-(2-(2,4-dichloro-5-fluorophenyl)morpholine-4-carbonyl)pyrrolidin-1-yl)-3,3-dimethyl-1-oxobutan-2-yl)carbamoyl)benzo[b]thiophen-5-yl)difluoromethyl)phosphonic acid] the Ki (STAT6 protein) was 1 to 10 µM and the Ki (STAT5A) was 1 to 10 µM.
`Cc1ccccc1C1CCCN(C(=O)[C@@H]2CCCN2C(=O)[C@@H](NC(=O)c2cc3cc(C(F)(F)P(=O)(O)O)ccc3s2)C(C)(C)C)C1` (stereo partly drawn) [Compound 105, ((2-(((2S)-3,3-dimethyl-1-oxo-1-((2S)-2-(3-(o-tolyl)piperidine-1-carbonyl)pyrrolidin-1-yl)butan-2-yl)carbamoyl)benzo[b]thiophen-5-yl)difluoromethyl)phosphonic acid] gave a Ki (STAT6 protein) of 1 to 10 µM and a Ki (STAT5A) of over 10 µM.
Work on `Cc1ccccc1C1CN(C(=O)[C@@H]2CCCN2C(=O)[C@@H](NC(=O)c2cc3cc(C(F)(F)P(=O)(O)O)ccc3s2)C(C)(C)C)CCO1` (stereo partly drawn) [Compound 106, ((2-(((2S)-3,3-dimethyl-1-oxo-1-((2S)-2-(2-(o-tolyl)morpholine-4-carbonyl)pyrrolidin-1-yl)butan-2-yl)carbamoyl)benzo[b]thiophen-5-yl)difluoromethyl)phosphonic acid] yielded a Ki (STAT6 protein) of 0.1 to 1 µM and a Ki (STAT5A) of 1 to 10 µM.
`Cc1ccc(C2CN(C(=O)[C@@H]3CCCN3C(=O)[C@@H](NC(=O)c3cc4cc(C(F)(F)P(=O)(O)O)ccc4s3)C(C)(C)C)CCO2)c(C)c1` (stereo partly drawn) [Compound 107, ((2-(((2S)-1-((2S)-2-(2-(2,4-dimethylphenyl)morpholine-4-carbonyl)pyrrolidin-1-yl)-3,3-dimethyl-1-oxobutan-2-yl)carbamoyl)benzo[b]thiophen-5-yl)difluoromethyl)phosphonic acid] was tested, and the Ki (STAT6 protein) was 1 to 10 µM and the Ki (STAT5A) was over 10 µM.
In the case of `Cc1cc(C2CN(C(=O)[C@@H]3CCCN3C(=O)[C@@H](NC(=O)c3cc4cc(C(F)(F)P(=O)(O)O)ccc4s3)C(C)(C)C)CCO2)ccc1F` (stereo partly drawn) [Compound 108, (difluoro(2-(((2S)-1-((2S)-2-(2-(4-fluoro-3-methylphenyl)morpholine-4-carbonyl)pyrrolidin-1-yl)-3,3-dimethyl-1-oxobutan-2-yl)carbamoyl)benzo[b]thiophen-5-yl)methyl)phosphonic acid], the Ki (STAT6 protein) is reported as 1 to 10 µM and the Ki (STAT5A) is reported as over 10 µM.
`CC(C)(C)[C@H](NC(=O)c1cc2cc(C(F)(F)P(=O)(O)O)ccc2s1)C(=O)N1CCC[C@H]1C(=O)N1CCOC(c2ccccc2F)C1` (stereo partly drawn) [Compound 109, (difluoro(2-(((2S)-1-((2S)-2-(2-(2-fluorophenyl)morpholine-4-carbonyl)pyrrolidin-1-yl)-3,3-dimethyl-1-oxobutan-2-yl)carbamoyl)benzo[b]thiophen-5-yl)methyl)phosphonic acid] gave a Ki (STAT6 protein) of 0.1 to 1 µM and a Ki (STAT5A) of over 10 µM.
With `CC(C)(C)[C@H](NC(=O)c1cc2cc(C(F)(F)P(=O)(O)O)ccc2s1)C(=O)N1CCC[C@H]1C(=O)N1CCOC(c2ccc(F)cc2F)C1` (stereo partly drawn) [Compound 110, ((2-(((2S)-1-((2S)-2-(2-(2,4-difluorophenyl)morpholine-4-carbonyl)pyrrolidin-1-yl)-3,3-dimethyl-1-oxobutan-2-yl)carbamoyl)benzo[b]thiophen-5-yl)difluoromethyl)phosphonic acid] the Ki (STAT6 protein) was 1 to 10 µM and the Ki (STAT5A) was over 10 µM.
`CC(C)(C)[C@H](NC(=O)c1cc2cc(C(F)(F)P(=O)(O)O)ccc2s1)C(=O)N1CCC[C@H]1C(=O)N1CCOC(c2ccc(F)c(F)c2)C1` (stereo partly drawn) [Compound 111, ((2-(((2S)-1-((2S)-2-(2-(3,4-difluorophenyl)morpholine-4-carbonyl)pyrrolidin-1-yl)-3,3-dimethyl-1-oxobutan-2-yl)carbamoyl)benzo[b]thiophen-5-yl)difluoromethyl)phosphonic acid] showed a Ki (STAT6 protein) of 0.1 to 1 µM and a Ki (STAT5A) of over 10 µM.
`CC(C)(C)[C@H](NC(=O)c1cc2cc(C(F)(F)P(=O)(O)O)ccc2s1)C(=O)N1CCC[C@H]1C(=O)N1CCOC(c2ccccc2Cl)C1` (stereo partly drawn) [Compound 112, ((2-(((2S)-1-((2S)-2-(2-(2-chlorophenyl)morpholine-4-carbonyl)pyrrolidin-1-yl)-3,3-dimethyl-1-oxobutan-2-yl)carbamoyl)benzo[b]thiophen-5-yl)difluoromethyl)phosphonic acid] showed a Ki (STAT6 protein) of 0.1 to 1 µM and a Ki (STAT5A) of over 10 µM.
In the case of `CC(C)(C)[C@H](NC(=O)c1cc2cc(C(F)(F)P(=O)(O)O)ccc2s1)C(=O)N1CCC[C@H]1C(=O)N1CCOC(c2ccc(F)c(Cl)c2)C1` (stereo partly drawn) [Compound 113, ((2-(((2S)-1-((2S)-2-(2-(3-chloro-4-fluorophenyl)morpholine-4-carbonyl)pyrrolidin-1-yl)-3,3-dimethyl-1-oxobutan-2-yl)carbamoyl)benzo[b]thiophen-5-yl)difluoromethyl)phosphonic acid], the Ki (STAT6 protein) is reported as 0.1 to 1 µM and the Ki (STAT5A) is reported as 1 to 10 µM.
Compound `CC(C)(C)[C@H](NC(=O)c1cc2cc(C(F)(F)P(=O)(O)O)ccc2s1)C(=O)N1CCC[C@H]1C(=O)N1CCOC(c2ccc(Cl)c(Cl)c2)C1` (stereo partly drawn) [Compound 114, ((2-(((2S)-1-((2S)-2-(2-(3,4-dichlorophenyl)morpholine-4-carbonyl)pyrrolidin-1-yl)-3,3-dimethyl-1-oxobutan-2-yl)carbamoyl)benzo[b]thiophen-5-yl)difluoromethyl)phosphonic acid] has a Ki (STAT6 protein) of 0.1 to 1 µM and a Ki (STAT5A) of 1 to 10 µM.
`CCOC(=O)C1CCN(C(=O)[C@@H]2CCCN2C(=O)[C@@H](NC(=O)c2cc3cc(C(F)(F)P(=O)(O)O)ccc3s2)C(C)(C)C)CC1c1ccccc1` (stereo partly drawn) [Compound 115, ((2-(((2S)-1-((2S)-2-(4-(ethoxycarbonyl)-3-phenylpiperidine-1-carbonyl)pyrrolidin-1-yl)-3,3-dimethyl-1-oxobutan-2-yl)carbamoyl)benzo[b]thiophen-5-yl)difluoromethyl)phosphonic acid] gave a Ki (STAT6 protein) of 1 to 10 µM and a Ki (STAT5A) of over 10 µM.

From patent publication US20230295200A1 (REGENTS OF THE UNIVERSITY OF MICHIGAN, priority 2022, published 2023)
